Values of other authors as cited in patent publication US20100323028A1, “METHOD AND COMPOSITION FOR TREATING PULMONARY HEMORRHAGE” (JBS UNITED, INC., priority 2007, published 2010).

System: horses
Conditions: alone or in combination not able to totally eliminate EIPH

Compound: NS(=O)(=O)c1cc(C(=O)O)c(NCc2ccco2)cc1Cl [furosemide]
- Effect on EIPH: effective in reducing EIPH
